Reference: patent US20020061839A1, “Serine peptidase modulators” (priority 1998, published 2002)
Where a name gives a salt, the structure may show the parent alone. Read-outs that look alike come from different tables or passages of the source.

Assays:
[1] = biological target: T1, Prolyl oligopeptidase (Homo sapiens, UniProt P48147); experiment: Inhibition of prolyl oligopeptidase (PO), Z-Gly-Pro-AMC substrate; type: biochemical; settings: PO from human platelets, 20 min at 37° C.
T1 construct: Prolyl oligopeptidase was purified from human platelets; from tissue; host or cells: human platelets
T1 sequence (P48147 1-710): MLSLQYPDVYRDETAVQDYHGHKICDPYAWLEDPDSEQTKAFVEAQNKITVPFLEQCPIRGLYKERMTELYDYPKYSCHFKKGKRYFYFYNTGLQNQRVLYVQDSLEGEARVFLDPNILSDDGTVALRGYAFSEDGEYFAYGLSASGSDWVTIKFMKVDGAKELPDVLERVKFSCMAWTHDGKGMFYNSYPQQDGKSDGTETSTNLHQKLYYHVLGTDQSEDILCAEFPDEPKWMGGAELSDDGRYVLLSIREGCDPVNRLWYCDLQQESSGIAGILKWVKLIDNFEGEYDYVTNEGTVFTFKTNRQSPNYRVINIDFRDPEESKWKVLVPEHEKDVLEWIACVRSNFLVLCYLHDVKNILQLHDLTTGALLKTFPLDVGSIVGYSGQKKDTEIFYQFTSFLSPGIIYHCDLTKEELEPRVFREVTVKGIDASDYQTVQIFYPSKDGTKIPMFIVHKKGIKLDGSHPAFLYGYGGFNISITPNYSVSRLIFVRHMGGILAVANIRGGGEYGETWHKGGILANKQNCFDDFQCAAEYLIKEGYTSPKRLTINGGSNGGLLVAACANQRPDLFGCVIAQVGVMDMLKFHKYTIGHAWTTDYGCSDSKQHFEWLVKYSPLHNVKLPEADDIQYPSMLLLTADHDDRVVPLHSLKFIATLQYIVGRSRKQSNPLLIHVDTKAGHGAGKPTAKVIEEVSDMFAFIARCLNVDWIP
Procedure: Prolyl oligopeptidase was purified from human platelets and the enzyme activity was measured using Z—Gly—Pro—AMC (4.4 mM) as the substrate in a K-phosphate buffer 100 mM, pH 7.5 containing 1 EM EDTA, 1 mM dithiothreitol and 1 mM NaN3. The incubation was carried out during 20 min at 37° C. The reaction was stopped by the addition of 5 volumes 1.5 M acetic acid. Fluorescence was measured at 370 and 440 nm as excitation and emission wavelengths respectively. The inhibitors were added at concentrations varying between 1 μM and 1 mM.

[2] = in vitro; settings: human, plasma
[3] = biological target: T2, DPP IV (Homo sapiens, UniProt P27487); experiment: biochemical; type: biochemical; settings: for kinact/KI: 0.25 h, pH 8.3, read-out: kcalc (second order rate constant of inactivation)
T2 construct: DPP IV was purified from human seminal plasma as described previously; from tissue; host or cells: human seminal plasma
T2 sequence (P27487 whole entry): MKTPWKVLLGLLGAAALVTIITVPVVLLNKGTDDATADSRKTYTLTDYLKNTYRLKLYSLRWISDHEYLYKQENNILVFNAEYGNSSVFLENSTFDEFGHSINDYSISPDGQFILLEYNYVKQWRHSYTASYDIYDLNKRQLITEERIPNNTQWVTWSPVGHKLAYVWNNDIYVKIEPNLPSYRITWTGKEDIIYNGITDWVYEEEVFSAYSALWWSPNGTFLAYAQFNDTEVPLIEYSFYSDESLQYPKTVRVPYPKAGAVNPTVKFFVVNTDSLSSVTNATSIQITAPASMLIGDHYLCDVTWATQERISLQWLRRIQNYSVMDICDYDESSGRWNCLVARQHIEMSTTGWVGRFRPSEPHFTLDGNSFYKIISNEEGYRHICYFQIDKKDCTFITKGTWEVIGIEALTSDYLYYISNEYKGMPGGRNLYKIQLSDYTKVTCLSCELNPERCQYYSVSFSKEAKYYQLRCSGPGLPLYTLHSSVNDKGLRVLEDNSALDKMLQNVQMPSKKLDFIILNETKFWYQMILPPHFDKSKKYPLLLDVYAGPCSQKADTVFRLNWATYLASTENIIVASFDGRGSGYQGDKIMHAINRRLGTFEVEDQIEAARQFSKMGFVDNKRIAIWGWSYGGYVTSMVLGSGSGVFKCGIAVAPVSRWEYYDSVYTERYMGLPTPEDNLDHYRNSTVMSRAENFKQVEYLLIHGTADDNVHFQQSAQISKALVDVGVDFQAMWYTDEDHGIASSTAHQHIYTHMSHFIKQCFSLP
Procedure: Enzymatic activity was measured at 37° C. in a Spectramax 340 (Molecular Devices) microtiterplate reader using Gly—Pro-p-nitroanilide (Sigma) as a chromogenic substrate. […] The reaction mixture contained 2 mM substrate, approximately 1 mU of DPP IV, 40 EM TRIS-HCl buffer, pH 8.3, and a suitable amount of inhibitor (ranging between 0 an 10 mM) in a total volume of 0.2 ml. Activity measurements were routinely performed in duplicate.
Stock solutions were diluted with 50 mM TRIS-HCl buffer, pH 8.3, as required, immediately before the experiment. […] For a simple pseudo-first order inactivation process, the activity after incubation with inhibitor (vi) varies with the inhibitor concentration (i) as described in the following equation: vi=vo * e-k.i.t, where vo is the activity in absence of inhibitor, k is the second order rate constant of inactivation and t is the time.

[4] = 15 min pre-incubation with DPP IV at 37° C., average ± standard deviation

SMILES	IC50 [1] [µM]	half-life at 1 mM [2] [h]	further results
CC(=O)Nc1cccc(OP(=O)(Oc2cccc(NC(C)=O)c2)C2CCCN2C(=O)[C@@H]2CCCN2C(=O)OCc2ccccc2)c1 (mixture of isomers) [10d, Di(3-acetamidophenyl) 1-(benzyloxycarbonyl-(S)-prolyl)-pyrrolidine-2(R,S)-phosphonate]	10	–	–
CC(=O)Nc1ccc(OP(=O)(Oc2ccc(NC(C)=O)cc2)C2CCCN2C(=O)[C@@H]2CCCN2C(=O)OCc2ccccc2)cc1 (mixture of isomers) [10e, Di(4-acetamidophenyl) 1-(benzyloxycarbonyl-(S)-prolyl)-pyrrolidine-2(R,S)-phosphonate]	21	–	–
CS(=O)(=O)Nc1ccc(OP(=O)(Oc2ccc(NS(C)(=O)=O)cc2)C2CCCN2C(=O)[C@@H]2CCCN2C(=O)OCc2ccccc2)cc1 (mixture of isomers) [10f, Di(4-methylsulfonylaminophenyl) 1-(benzyloxycarbonyl-(S)-prolyl)pyrrolidine-2(R,S)-phosphonate]	10	–	–
O=C(CNC(=O)c1ccccc1)Nc1ccc(OP(=O)(Oc2ccc(NC(=O)CNC(=O)c3ccccc3)cc2)C2CCCN2C(=O)[C@@H]2CCCN2C(=O)OCc2ccccc2)cc1 (mixture of isomers) [10h, Di[4-(N-benzoylglycylamino)phenyl]-1-(benzyloxycarbonyl-(S)-prolyl)pyrrolidine-2(R,S)-phosphonate]	12	–	–
O=C(CNC(=O)OCc1ccccc1)Nc1ccc(OP(=O)(Oc2ccc(NC(=O)CNC(=O)OCc3ccccc3)cc2)C2CCCN2C(=O)[C@@H]2CCCN2C(=O)OCc2ccccc2)cc1 (mixture of isomers) [10i, Di[4-(N-benzyloxycarbonylglycylamino)phenyl]-1-(benzyloxycarbonyl-(S)-prolyl)pyrrolidine-2(R,S)-phosphonate]	15	–	–
COC(=O)[C@H](Cc1ccc(OP(=O)(Oc2ccc(C[C@H](NC(C)=O)C(=O)OC)cc2)C2CCCN2C(=O)[C@@H]2CCCN2C(=O)OCc2ccccc2)cc1)NC(C)=O (mixture of isomers) [10l, Di{4-[-(S)-(2-methoxycarbonyl-2-acetamido)ethyl]phenyl}1-(benzyloxycarbonyl-(S)-prolyl)pyrrolidine-2(R,S)-phosphonate]	20	–	–
CCOC(=O)CNC(=O)c1ccc(OP(=O)(Oc2ccc(C(=O)NCC(=O)OCC)cc2)C2CCCN2C(=O)[C@@H]2CCCN2C(=O)OCc2ccccc2)cc1 (mixture of isomers) [10n, Di{4-[(ethoxycarbonyl)methylaminocarbonyl]phenyl}1-(benzyloxycarbonyl-(S)-prolyl)-pyrrolidine-2(R,S)-phosphonate]	5	–	–
COC(=O)CCNC(=O)c1ccc(OP(=O)(Oc2ccc(C(=O)NCCC(=O)OC)cc2)C2CCCN2C(=O)[C@@H]2CCCN2C(=O)OCc2ccccc2)cc1 (mixture of isomers) [10o, Di{4-[2-(methoxycarbonyl)ethylaminocarbonyl]phenyl}1-(benzyloxycarbonyl-(S)-prolyl)-pyrrolidine-2(R,S)-phosphonate]	2.8	–	–
CCCNC(=O)c1ccc(OP(=O)(Oc2ccc(C(=O)NCCC)cc2)C2CCCN2C(=O)[C@@H]2CCCN2C(=O)OCc2ccccc2)cc1 (mixture of isomers) [10p, Di[4-(n-propylaminocarbonyl)phenyl]1-(benzyloxycarbonyl-(S)-prolyl)-pyrrolidine-2(R,S)-phosphonate]	3.2	–	–
CC(=O)Nc1cccc(OP(=O)(Oc2cccc(NC(C)=O)c2)C2CCCN2C(=O)[C@@H]2CCCN2)c1.Cl (mixture of isomers) [11d, Di(3-acetamidophenyl) 1-((S)-prolyl)pyrrolidine-2(R,S)-phosphonate hydrochloride]	–	3.67 ± 0.5	–
CS(=O)(=O)Nc1ccc(OP(=O)(Oc2ccc(NS(C)(=O)=O)cc2)C2CCCN2C(=O)[C@@H]2CCCN2)cc1.Cl (mixture of isomers) [11f, Di(4-methylsulfonylaminophenyl) 1-((S)-prolyl)-pyrrolidine-2(R,S)-phosphonate hydrochloride]	–	2.5 ± 0.5	potency compared to the diastereoisomeric mixture 5 ([3]; DPP IV inhibition): about 100 times
NC(=O)Nc1cccc(OP(=O)(Oc2cccc(NC(N)=O)c2)C2CCCN2C(=O)[C@@H]2CCCN2)c1 (mixture of isomers) [11g, Di(3-ureylphenyl) 1-((S)-prolyl)pyrrolidine-2(R,S)-phosphonate hydrochloride]	–	3.5 ± 1.33	kinact/KI [3]: 330 M⁻¹ s⁻¹; IC50 [3, 4]: 2.3 ± 0.3 µM
Cl.O=C(CNC(=O)c1ccccc1)Nc1ccc(OP(=O)(Oc2ccc(NC(=O)CNC(=O)c3ccccc3)cc2)C2CCCN2C(=O)[C@@H]2CCCN2)cc1 (mixture of isomers) [11h, Di[4-(N-benzoylglycylamino)phenyl]-1-((S)-prolyl)pyrrolidine-2(R,S)-phosphonate hydrochloride]	–	1.55 ± 0.05	–
Cl.Cl.Cl.NCC(=O)Nc1ccc(OP(=O)(Oc2ccc(NC(=O)CN)cc2)C2CCCN2C(=O)[C@@H]2CCCN2)cc1 (mixture of isomers) [11i, Di[4-(N-glycylamino)phenyl]-1-((S)-prolyl)-pyrrolidine-2(R,S)-phosphonate trihydrochloride]	–	0.467 ± 0.05	–
C[C@H](N)C(=O)Nc1ccc(OP(=O)(Oc2ccc(NC(=O)[C@H](C)N)cc2)C2CCCN2C(=O)[C@@H]2CCCN2)cc1 (mixture of isomers) [11j, Di(4-(S)-alanylaminophenyl)-1-((S)-prolyl)pyrrolidine-2(R,S)-phosphonate trihydrochloride]	–	0.133 ± 0.0167	kinact/KI [3]: 1300 M⁻¹ s⁻¹; IC50 [3, 4]: 0.6 ± 0.2 µM
O=C1CC[C@@H](C(=O)Nc2ccc(OP(=O)(Oc3ccc(NC(=O)[C@@H]4CCC(=O)N4)cc3)C3CCCN3C(=O)[C@@H]3CCCN3)cc2)N1 (mixture of isomers) [11k, Di(4-(S)-pyroglutamylaminophenyl)-1-((S)-prolyl)pyrrolidine-2(R,S)-phosphonate hydrochloride]	–	2.83 ± 0.5	kinact/KI [3]: 150 M⁻¹ s⁻¹; IC50 [3, 4]: 5 ± 0.8 µM
COC(=O)CCNC(=O)c1ccc(OP(=O)(Oc2ccc(C(=O)NCCC(=O)OC)cc2)C2CCCN2C(=O)[C@@H]2CCCN2)cc1.Cl (mixture of isomers) [11o, Di{4-[2-(methoxycarbonyl)ethylaminocarbonyl]phenyl}1-((S)-prolyl)-pyrrolidine-2(R,S)-phosphonate hydrochloride]	–	0.433 ± 0.0167	–
CCCNC(=O)c1ccc(OP(=O)(Oc2ccc(C(=O)NCCC)cc2)C2CCCN2C(=O)[C@@H]2CCCN2)cc1.Cl (mixture of isomers) [11p, Di[4-(n-propylaminocarbonyl)phenyl]1-((S)-prolyl)-pyrrolidine-2(R,S)-phosphonate hydrochloride]	–	0.2 ± 0.0167	–
COP(=O)(Oc1ccccc1-c1ccccc1O)C1CCCN1C(=O)[C@@H]1CCCN1 (mixture of isomers) [compound 18, 2-(2′-Hydroxyphenyl)phenyl methyl 1-(S)-prolyl)-pyrrolidine-2(R,S)-phosphonate hydrochloride]	–	2.33 ± 1.33	IC50 [3]: 47 µM; kinact/KI [3]: 16 M⁻¹ s⁻¹
COC(=O)C(Cc1ccc(OP(=O)(Oc2ccc(CC(NC(C)=O)C(=O)OC)cc2)C2CCCN2C(=O)C2CCCN2)cc1)NC(C)=O [11l, Di{4-[-(S)-(2-methoxycarbonyl-2-acetamido)ethyl]phenyl}1-((S)-prolyl)pyrrolidine-2-phosphonate hydrochloride]	–	3.17 ± 2.5	IC50 [3]: 1.4 µM; kinact/KI [3]: 550 M⁻¹ s⁻¹
